The subject of one data set is Her2. The data set is described as follows: IC50 range for inhibition of Her2 degradation (Table 8). It is filed as cell-based. Particulars: Homo sapiens. How it is done: Human high-Her2 breast carcinoma BT474 (HTB-20), SK-BR-3 (HTB-30) and MCF-7 breast carcinoma (HTB-22) from American Type Culture Collection, VA, USA were grown in Dulbecco's modified Eagle's medium with 4 mM L-glutamine and antibiotics (100 IU/ml penicillin and 100 ug/ml streptomycine; GibcoBRL). To obtain exponential cell growth, cells were trypsinized, counted and seeded at a cell density of 0.5×10^6 cells/ml regularly, every 3 days. All experiments were performed on day 1 after cell passage. […]
After treatment with a compound of the invention, cells were washed twice with 1×PBS/1% FBS, and then stained with anti-Her2-FITC (#340553, BD) for 30 min at 4° C. Cells were then washed three times in FACS buffer before the fixation in 0.5 ml 1% paraformadehydrede. Data was acquired on a FACSCalibur system. Isotype-matched controls were used to establish the non-specific staining of samples and to set the fluorescent markers. A total 10,000 events were recorded from each sample. Data were analysed by using CellQuest software (BD Biosciences).

Another data set deals with Daudi. In words: Daudi non-Hodgkin's lymphoma SCID mouse xenograft. In kind it is in vivo. Particulars: 25 mg/kg i.v., 5 times per week, 15 doses. How it is done: FBS was obtained from ATCC and all other reagents were obtained from Invitrogen Corp. (Carlsbad, Calif., USA). Cells that had been cryopreserved in liquid nitrogen were rapidly thawed at 37° C. and transferred to a tissue culture flask containing growth media and then incubated at 37° C. in a 5% CO2 incubator. To expand the cell line, cultures were passaged 1:2 to a density of 5×10(6) cells/ml every three days by adding an equal volume of fresh growth media. When the flasks reached a density of approximately 10×10(6) cells/ml, the above passaging process was repeated until sufficient cells had been obtained for implantation into mice.
(§1) Seven to eight week old, female CB17/Icr-Prkdc^scid/Crl (SCID) mice were obtained from Charles River Laboratories (Wilmington, Mass., USA). Animals were housed 4-5/cage in micro-isolators, with a 12 hr/12 hr light/dark cycle, acclimated for at least 1 week prior to use and fed normal laboratory chow ad libitum. Studies were conducted on animals that were between 8 and 12 weeks of age at the time of tumor cell implantation. […] Using a 27 gauge needle and 1 cc syringe, 0.1 ml of the cell suspension was injected subcutaneously into the shaved flanks of SCID mice. To implant SU-DHL-4 tumor cells into SCID mice, cell cultures were centrifuged to pellet the cells, the supernatant was aspirated and the cell pellet was resuspended in 10 ml of growth media and the cell number determined using a hemocytometer, washed in PBS and resuspended at a concentration of 10×10(7) cells/ml in 50% PBS and 50% Matrigel Basement Membrane Matrix (#354234; BD Biosciences; Bedford, Mass., USA). Using a 27 gauge needle and 1 cc syringe, 0.1 ml of the cell suspension was injected subcutaneously into the shaved flanks of SCID mice.
Tumors were then permitted to develop in vivo until the majority reached 100-200 mm^3 in tumor volume, which typically required 2-3 weeks following implantation. […] Tumor volumes (V) were calculated by caliper measurement of the width (W), length (L) and thickness (T) of tumors using the following formula: V=0.5236×(L×W×T). […]

Another data set relates to SU-DHL-4. In words: SU-DHL-4 non-Hodgkin's lymphoma SCID mouse xenograft. It is filed as in vivo. Particulars: for % T/C value: FIG. 6. As to the method: The human non-Hodgkin's lymphoma tumor cell line, SU-DHL-4 (DSMZ #ACC 495), sub-classified as a GCB-type diffuse large B-cell lymphoma, was obtained from Deutsche Sammlung von Mikroorganismen und Zellkulturen GmbH (DSMZ; Braunschweig, Germany). […] FBS was obtained from ATCC and all other reagents were obtained from Invitrogen Corp. (Carlsbad, Calif., USA). Approximately 3-4×10(7) cells that had been cryopreserved in liquid nitrogen were rapidly thawed at 37° C. and transferred to a 175 cm^2 tissue culture flask containing 50 ml of growth media and then incubated at 37° C. in a 5% CO2 incubator. To passage and expand the cell line, the contents of a flask were centrifuged to pellet the cells, the supernatant was aspirated and the cell pellet was resuspended in 10 ml of growth media and the cell number determined using a hemocytometer. Approximately 3-4×10(7) cells per flask were seeded into 175 cm^2 flasks containing 50 ml of growth media and incubated at 37° C. in a 5% CO2 incubator. The above passaging process was repeated every 2-3 days until sufficient cells had been obtained for implantation into mice.
as §1
Tumors were then permitted to develop in vivo until the majority reached 100-200 mm^3 in tumor volume, which typically required 2-3 weeks following implantation. […] Tumor volumes (V) were calculated by caliper measurement of the width (W), length (L) and thickness (T) of tumors using the following formula: V=0.5236×(L×W×T). Animals were randomized into treatment groups so that the median tumor volumes of each group were similar at the start of dosing. % T/C values, as a measure of efficacy, were determined as follows: • (i) If ΔT>0: % T/C=(ΔT/ΔC)×100 • (ii) If ΔT<0: % T/C=(ΔT/T0)×100 • (iii) ΔT=Change in median tumor volume between start of dosing and the end of study. • (iv) ΔC=Change in median tumor volume between start of dosing and the end of study. • (v) T0=Median tumor volume at start of dosing.
To formulate Compound #226 in DRD, stock solutions of the test article were prepared by dissolving the appropriate amounts of the compound in dimethyl sulfoxide (DMSO) by sonication in an ultrasonic water bath. Stock solutions were prepared weekly, stored at −20° C. and diluted fresh each day for dosing. A solution of 20% Cremophore RH40 (polyoxyl 40 hydrogenated castor oil; BASF Corp., Aktiengesellschaft, Ludwigshafen, Germany) in 5% dextrose in water (Abbott Laboratories, North Chicago, Ill., USA) was also prepared by first heating 100% Cremophore RH40 at 50-60° C. until liquefied and clear, diluting 1:5 with 100% D5W, reheating again until clear and then mixing well. This solution was stored at room temperature for up to 3 months prior to use. To prepare DRD formulations for daily dosing, DMSO stock solutions were diluted 1:10 with 20% Cremophore RH40. […]

Entries after “also recorded” stand apart in the source; their conditions may differ.

As usually defined, the IC50 is the concentration needed to halve the response being measured. A higher IC50 goes with lower potency. `Oc1ccc(-c2nnc(S)n2-c2cccc(-c3ccccc3)c2)c(O)c1` [Compound 181, 3-(2,4-Dihydroxy-phenyl)-4-(biphenyl-3-yl)-5-mercapto-triazole] registered an IC50 with Her2 of 10000 to 100000 nM.
Take `Cc1ccc(CO)cc1-n1c(S)nnc1-c1ccc(O)cc1O` [Compound 182, 3-(2,4-Dihydroxy-phenyl)-4-(2-methyl-5-hydroxymethyl-phenyl)-5-mercapto-triazole]: the IC50 with Her2 is 10000 to 100000 nM.
`Oc1cc(O)c(-c2nnc(S)n2-c2cccc3ccccc23)cc1O` [Compound 184, 3-(2,4,5-Trihydroxy-phenyl)-4-(naphthalene-1-yl)-5-mercapto-triazole] showed an IC50 in the data set on Her2 of 3000 to 10000 nM.
In the data set on Her2, `CCc1cc(-c2nnc(S)n2-c2ccc3[nH]c(C)c(C)c3c2)c(O)cc1O` [Compound 185, 3-(2,4-Dihydroxy-5-ethyl-phenyl)-4-(2,3-dimethyl-indol-5-yl)-5-mercapto-triazole] yielded an IC50 of less than 3000 nM.
For `CCc1cc(-c2nnc(S)n2-c2ccc(OC)c(C(C)(C)C)c2)c(O)cc1O` [Compound 186, 3-(2,4-Dihydroxy-5-ethyl-phenyl)-4-(3-t-butyl-4-methoxy-phenyl)-5-mercapto-triazole], the IC50 in the data set with Her2 fell in the range of 10000 to 100000 nM.
On the same count and under the same terms, next, `CCc1cc(-c2nnc(S)n2-c2ccc(OC)c3c2ccn3C(C)C)c(O)cc1O` [Compound 188, 3-(2,4-Dihydroxy-5-ethyl-phenyl)-4-(1-isopropyl-7-methoxy-indol-4-yl)-5-mercapto-[1,2,4]triazole]: less than 3000 nM.
`Oc1cc(O)c(C2CC2)cc1-c1nnc(S)n1-c1cccc2ccccc12` [Compound 189, 3-(2,4-Dihydroxy-5-cyclopropyl-phenyl)-4-(naphthalene-1-yl)-5-mercapto-triazole] displayed an IC50 with Her2 of less than 3000 nM.
For `CC(C)c1cc(-c2nnc(O)n2-c2ccc3c(ccn3C)c2)c(O)cc1O` [Compound 226, 3-(2,4-dihydroxy-5-isopropyl-phenyl)-4-(1-methyl-indol-5-yl)-5-hydroxy-[1,2,4] triazole], the overt toxicity entry in the data set on Daudi (SCID mice) was “not associated with overt toxicity; also recorded: Overt toxicity was not observed”; in the data set with SU-DHL-4 (50, 75 and 100 mg/kg i.v., 2 times per week, 4 doses, SCID mice) it was “not associated with overt toxicity; also recorded: Overt toxicity was not observed”. In addition, the “% T/C value” in the data set on Daudi (SCID mice, FIG. 5) is 1.5%; in the data set with SU-DHL-4 (50 mg/kg i.v., 2 times per week, 4 doses, SCID mice) it was 34.9%; in the data set on SU-DHL-4 (75 mg/kg i.v., 2 times per week, 4 doses, SCID mice) it was 8.1%; in the data set with SU-DHL-4 (100 mg/kg i.v., 2 times per week, 4 doses, SCID mice), −10.4%. For the same compound, the “average bodyweight loss relative to the start of the study” value is on record as −1.0% in the data set with Daudi (day 41 / over the course of the study) and −4.2% with SU-DHL-4 (highest dose group 100 mg/kg i.v., 2 times per week, 4 doses, day 31). In addition, the average bodyweight loss in the data set on SU-DHL-4 (over the course of the study, dose not stated (text on FIG. 6)) is given as −1.0%.
`CCc1cc(-c2nnc(S)n2-c2ccc(OC)c(N(CC)CC)c2)c(O)cc1O` [Compound 247, 4-(4-(3-(diethylamino)-4-methoxyphenyl)-5-mercapto-4H-1,2,4-triazol-3-yl)-6-ethylbenzene-1,3-diol] came in with an IC50 in the data set with Her2 of less than 3000 nM.
The same measure, in the same setting: with `CCCN(c1cc(-n2c(S)nnc2-c2cc(CC)c(O)cc2O)ccc1OC)C(C)C` [Compound 248, 4-(4-(3-(N-isopropyl-N-propylamino)-4-methoxyphenyl)-5-mercapto-4H-1,2,4-triazol-3-yl)-6-ethylbenzene-1,3-diol] the figure was less than 3000 nM; with `CCc1cc(-c2nnc(S)n2-c2ccc(OC)c(N(C)C(C)C)c2)c(O)cc1O` [Compound 249, 4-(4-(3-(N-isopropyl-N-methylamino)-4-methoxyphenyl)-5-mercapto-4H-1,2,4-triazol-3-yl)-6-ethylbenzene-1,3-diol], less than 3000 nM.
In the data set with Her2, `CCc1cc(-c2nnc(S)n2-c2ccc(OC)c(N(C)CC)c2)c(O)cc1O` [Compound 250, 4-(4-(3-(N-ethyl-N-methylamino)-4-methoxyphenyl)-5-mercapto-4H-1,2,4-triazol-3-yl)-6-ethylbenzene-1,3-diol] came in with an IC50 of less than 3000 nM.
Compound `CCc1cc(-c2nnc(S)n2-c2ccc(OC)c(N(C)C)c2)c(O)cc1O` [Compound 251, 4-(4-(3-(dimethylamino)-4-methoxyphenyl)-5-mercapto-4H-1,2,4-triazol-3-yl)-6-ethylbenzene-1,3-diol] had an IC50 with Her2 of less than 3000 nM.
`CCc1cc(-c2nnc(S)n2-c2cccc(N(C)C)c2)c(O)cc1O` [Compound 252, 4-(4-(3-(dimethylamino)phenyl)-5-mercapto-4H-1,2,4-triazol-3-yl)-6-ethylbenzene-1,3-diol] came in with an IC50 in the data set on Her2 of less than 3000 nM.
Turning to `CCc1cc(-c2nnc(S)n2-c2ccc(N(C)C)c(OC)c2)c(O)cc1O` [Compound 259, 4-(4-(4-(dimethylamino)-3-methoxyphenyl)-5-mercapto-4H-1,2,4-triazol-3-yl)-6-ethylbenzene-1,3-diol], in the data set on Her2, the IC50 is less than 3000 nM.
Still for that read-out and setting: with `CCc1cc(-c2n[nH]c(O)c2-c2cccc3ccccc23)c(O)cc1O` [Compound 348, 4-(naphthalen-1-yl)-3-(5-ethyl-2,4-dihydroxy-phenyl)-5-hydroxy-2H-pyrazole] the figure was 10000 to 100000 nM.
